Data as given in paper PMC5587309, “Involvement of arginine 878 together with Ca^2+ in mouse aminopeptidase A substrate specificity for N-terminal acidic amino-acid residues” (PLoS ONE, 2017).
Changes are numbered by the printed parent chain. Read-outs that look alike come from different tables or passages of the source.

Experiments:
[1] = target: T1, wild-type mAPA (Mus musculus, UniProt P16406); test: Inhibition of GluNA hydrolysis by purified recombinant wild-type His-mAPA; type: biochemical; details: wild-type mAPA; for Ki: 0.5 mM GluNA, read-out: Ki
T1 construct: made in house; host or cells: stably transfected CHO-K1 cells
T1 sequence (P16406 1-945): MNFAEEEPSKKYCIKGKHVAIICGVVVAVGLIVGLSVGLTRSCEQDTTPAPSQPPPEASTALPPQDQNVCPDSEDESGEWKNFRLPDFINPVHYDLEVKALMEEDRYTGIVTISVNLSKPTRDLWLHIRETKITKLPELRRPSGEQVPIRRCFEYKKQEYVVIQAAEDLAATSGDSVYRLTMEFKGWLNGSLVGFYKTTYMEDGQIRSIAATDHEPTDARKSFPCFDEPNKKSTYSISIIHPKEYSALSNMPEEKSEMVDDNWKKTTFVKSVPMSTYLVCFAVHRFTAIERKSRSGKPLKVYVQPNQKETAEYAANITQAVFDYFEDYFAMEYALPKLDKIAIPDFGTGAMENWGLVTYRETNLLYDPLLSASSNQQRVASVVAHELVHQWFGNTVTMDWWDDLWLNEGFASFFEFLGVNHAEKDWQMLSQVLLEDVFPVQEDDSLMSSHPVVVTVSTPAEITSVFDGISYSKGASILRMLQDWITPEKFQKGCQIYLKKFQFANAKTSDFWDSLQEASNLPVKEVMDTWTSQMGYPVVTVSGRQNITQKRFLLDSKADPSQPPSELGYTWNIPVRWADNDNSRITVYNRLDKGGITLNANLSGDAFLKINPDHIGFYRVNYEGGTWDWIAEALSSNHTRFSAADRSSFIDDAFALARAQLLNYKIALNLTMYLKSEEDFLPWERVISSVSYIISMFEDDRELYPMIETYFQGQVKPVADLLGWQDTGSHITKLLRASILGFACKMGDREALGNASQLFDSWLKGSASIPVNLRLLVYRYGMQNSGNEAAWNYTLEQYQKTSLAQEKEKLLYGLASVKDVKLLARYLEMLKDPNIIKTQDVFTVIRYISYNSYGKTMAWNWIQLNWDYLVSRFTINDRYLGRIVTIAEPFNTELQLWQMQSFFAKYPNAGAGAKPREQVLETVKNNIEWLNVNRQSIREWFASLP
Protocol: (§1) Enzyme assays were carried out for wild-type and mutated His-mAPAs in 50 mM Tris-HCl buffer, pH 7.4, with or without 4 mM CaCl2, by monitoring the rate of hydrolysis of GluNA, as previously described. The sensitivity to Ca^2+ of purified wild-type and mutated His-mAPA was determinated by incubating 0.5 mM GluNA with 0 to 4 mM CaCl2 in a final volume of 100 μl of 50 mM Tris-HCl buffer, pH 7.4. All the assays were performed in black 96-well plates (solid black 96-well flat-bottomed non-treated plates with no lid; Corning Costar). All of the enzymatic studies were performed such that substrate hydrolysis rates were maintained below 10% (initial rate conditions). The kinetic curves were monitored by following the increase in fluorescence at 460 nm (lex = 330 nm), induced by the release of the β-naphthylamide fluorogenic part of the substrate by APA. Fluorescence signals were monitored by counting photons with a spectrophotometer (Fusion universal microplate analyser; Packard) equipped with a temperature control device and a plate shaker. The kinetic parameters (Km and kcat) were determined from Michaelis-Menten plots, using GraphPad Prism 4 software (GraphPad) with a final concentration of substrate (GluNA) from 0.005 to 5 mM with or without 4 mM Ca^2+. For evaluation of the substrate specificity of APA with or without 4 mM Ca^2+, the rate of hydrolysis of […] additional substrates, α-L-aspartate-β-naphthylamide (AspNA), α-L-alanine-β-naphthylamide (AlaNA) and basic α-L-lysine-β-naphthylamide (LysNA), was determined under the same experimental conditions as described for GluNA. The sensitivity of wild-type and mutated His-mAPAs to inhibition by [(3S)-3-amino-4-sulfanyl-butane-1-sulfonic acid] (EC33), glutamate-thiol (GluSH), glutamate-phosphonic-acid (GluPO3H2), methionine-thiol (MetSH) and lysine-thiol (LysSH) was determined by establishing dose-dependent inhibition curves for a final GluNA concentration of 0.5 mM in the presence or absence of 4 mM CaCl2. These compounds being linear competitive inhibitors, their Ki were calculated from the formula Ki = IC50/ (1+ [GluNA]/Km).

[2] = target: T2, R878A mutated mAPA (Mus musculus, UniProt P16406, R878A); test: Kinetic parameters of substrate hydrolysis by R878A His-mAPA; type: biochemical
T2 construct: made in house; host or cells: stably transfected CHO-K1 cells
T2 sequence (P16406 1-945 R878A): T1 sequence (P16406 1-945) with R878A
Protocol: as §1

CSCC[C@H](N)CS [MetSH]
Ki ([1]; 4 mM Ca2+): 9180 ± 770 nM | Ki ([1]; absence of calcium): 750 ± 46 nM

N[C@@H](CCC(=O)O)C(=O)Nc1ccc2ccccc2c1 [HGluβNA, α-L-glutamyl-β-naphthylamide]
Km ([2]; 4 mM Ca2+): 221 ± 4 µM | kcat ([2]; 4 mM Ca2+): 22.4 ± 0.1 s⁻¹ | Km ([2]; no Ca2+): 1500 ± 79.6 µM | kcat ([2]; no Ca2+): 4.95 ± 0.1 s⁻¹ | decrease in hydrolysis velocity (kcat) compared to wild-type (factor) ([2]; presence of Ca2+): 4 | decrease in the affinity of the enzyme for the substrate compared to wild-type (factor) ([2]; presence of Ca2+): 6

N[C@@H](CC(=O)O)C(=O)Nc1ccc2ccccc2c1 [HAspβNA, α-L-aspartate-β-naphthylamide]
Km ([2]; 4 mM Ca2+): 199 ± 10.1 µM | kcat ([2]; 4 mM Ca2+): 17.9 ± 0.2 s⁻¹ | Km ([2]; no Ca2+): 1220 ± 24.9 µM | kcat ([2]; no Ca2+): 1.89 ± 0.2 s⁻¹

N[C@H](CS)CCC(=O)O [GluSH, (4S)-4-amino-5-sulfanylpentanoic acid]
enhancement of inhibitory potency by 4 mM Ca2+ compared to Ki in the absence of Ca2+ [1]: 5.0 fold | Ki ([1]; 4 mM Ca2+): 314 ± 33 nM | Ki ([1]; absence of calcium): 1570 ± 270 nM

NCCCC[C@H](N)CS [LysSH, (2S)-2,6-diaminohexane-1-thiol]
Ki ([1]; 4 mM Ca2+): 13400 ± 1700 nM | Ki ([1]; absence of calcium): 317 ± 30 nM

N[C@H](CS)CCS(=O)(=O)O [EC33, (3S)‐3‐amino‐4‐sulfanylbutane‐1‐sulfonic acid]
Ki ([1]; 4 mM Ca2+): 268 ± 22 nM

NCCCC[C@H](N)C(=O)Nc1ccc2ccccc2c1 [HLysβNA, α-L-lysine-β-naphthylamide]
Km ([2]; 4 mM Ca2+): 159 ± 7.8 µM | kcat ([2]; 4 mM Ca2+): 11.6 ± 0.2 s⁻¹ | Km ([2]; no Ca2+): 394 ± 57 µM | kcat ([2]; no Ca2+): 13.8 ± 0.7 s⁻¹

C[C@H](N)C(=O)Nc1ccc2ccccc2c1 [HAlaβNA, α-L-alanine-β-naphthylamide]
Km ([2]; 4 mM Ca2+): 544 ± 74 µM | kcat ([2]; 4 mM Ca2+): 41.5 ± 1.6 s⁻¹ | Km ([2]; no Ca2+): 651 ± 43.8 µM | kcat ([2]; no Ca2+): 12.6 ± 0.04 s⁻¹
